Source: patent publication EP4122917A1, “C2-THIOETHER […] AND TETRAMERS AND USE THEREOF” (priority 2021, dated 2023)
Where two headings read alike, the source gives them in different places.

Experiments:
in vitro [1] = conditions: monkey, vero-e6 cells
[2] = test system: Pseudotyped vesicular stomatitis virus (VSV) carrying a codon-optimized S protein of the Wuhan SARS-CoV-2 strain; type: cell-based; conditions: read-out: IC50 (µM) Pseudotype VSV (A549ACE2-TM PRSS2)
in vitro [3] = conditions: human, a549-ace2-tmprss2 cells
[4] = test system: Pseudotyped vesicular stomatitis virus (VSV) carrying a codon-optimized S protein of the Wuhan SARS-CoV-2 strain; type: cell-based; conditions: read-out: IC50 (µM) Pseudotype VSV (Vero)
in vitro [5] = conditions: monkey, vero cells

SMILES	CC50 at 24 h (in vitro [1])	IC50 [2]	CC50 (in vitro [3])	IC50 [4]	CC50 (in vitro [5])
NCC(=O)NC(CCC(=O)N[C@@H](Cc1c(Sc2ccc([N+](=O)[O-])cc2)[nH]c2ccccc12)C(=O)O)(CCC(=O)N[C@@H](Cc1c(Sc2ccc([N+](=O)[O-])cc2)[nH]c2ccccc12)C(=O)O)CCC(=O)N[C@@H](Cc1c(Sc2ccc([N+](=O)[O-])cc2)[nH]c2ccccc12)C(=O)O [Compound 7a]	> 100 µM	2.4 µM	> 100 µM	0.23 µM	> 100 µM
NCC(=O)NC(CCC(=O)N[C@@H](Cc1c(Sc2cccc([N+](=O)[O-])c2)[nH]c2ccccc12)C(=O)O)(CCC(=O)N[C@@H](Cc1c(Sc2cccc([N+](=O)[O-])c2)[nH]c2ccccc12)C(=O)O)CCC(=O)N[C@@H](Cc1c(Sc2cccc([N+](=O)[O-])c2)[nH]c2ccccc12)C(=O)O [Compound 7b]		6.44 µM	> 100 µM	13 µM	> 100 µM
CC(=O)c1ccc(Sc2[nH]c3ccccc3c2C[C@H](NC(=O)CCC(CCC(=O)N[C@@H](Cc2c(Sc3ccc(C(C)=O)cc3)[nH]c3ccccc23)C(=O)O)(CCC(=O)N[C@@H](Cc2c(Sc3ccc(C(C)=O)cc3)[nH]c3ccccc23)C(=O)O)NC(=O)CN)C(=O)O)cc1 [Compound 7c]	> 100 µM	1.94 µM	> 100 µM	1.4 µM	> 100 µM
NCC(=O)NC(CCC(=O)N[C@@H](Cc1c(Sc2ccc(C(F)(F)F)cc2)[nH]c2ccccc12)C(=O)O)(CCC(=O)N[C@@H](Cc1c(Sc2ccc(C(F)(F)F)cc2)[nH]c2ccccc12)C(=O)O)CCC(=O)N[C@@H](Cc1c(Sc2ccc(C(F)(F)F)cc2)[nH]c2ccccc12)C(=O)O [Compound 7d]		9.35 µM	> 100 µM	15.1 µM	> 100 µM
N#Cc1ccc(Sc2[nH]c3ccccc3c2C[C@H](NC(=O)CCC(CCC(=O)N[C@@H](Cc2c(Sc3ccc(C#N)cc3)[nH]c3ccccc23)C(=O)O)(CCC(=O)N[C@@H](Cc2c(Sc3ccc(C#N)cc3)[nH]c3ccccc23)C(=O)O)NC(=O)CN)C(=O)O)cc1 [Compound 7e]		8.8 µM	> 100 µM	13.9 µM	> 100 µM
NCC(=O)NC(CCC(=O)N[C@@H](Cc1c(Sc2ccc(F)cc2)[nH]c2ccccc12)C(=O)O)(CCC(=O)N[C@@H](Cc1c(Sc2ccc(F)cc2)[nH]c2ccccc12)C(=O)O)CCC(=O)N[C@@H](Cc1c(Sc2ccc(F)cc2)[nH]c2ccccc12)C(=O)O [Compound 7f]		31 µM	> 100 µM	28.4 µM	> 100 µM
